Measured values as given in article PMC6934184, “Selective DNA-PKcs inhibition extends the therapeutic index of localized radiotherapy and chemotherapy” (The Journal of Clinical Investigation, 2019).

Target: T1, FYN A (Homo sapiens, UniProt P06241)
T1 construct: purchased Thermo Fisher Scientific (Life Technologies) SelectScreen
Assay: SelectScreen LanthaScreen
Type: binding
Settings: read-out: % displacement
How it was run: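 SelectScreen broad panel; activity (Z'LYTE, Adapta) plus binding formats. ATP: Km app for CSF1R Z'LYTE; 10 for CAMK1 Adapta. Readout = % per kinase.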

T1 sequence (P06241 whole entry): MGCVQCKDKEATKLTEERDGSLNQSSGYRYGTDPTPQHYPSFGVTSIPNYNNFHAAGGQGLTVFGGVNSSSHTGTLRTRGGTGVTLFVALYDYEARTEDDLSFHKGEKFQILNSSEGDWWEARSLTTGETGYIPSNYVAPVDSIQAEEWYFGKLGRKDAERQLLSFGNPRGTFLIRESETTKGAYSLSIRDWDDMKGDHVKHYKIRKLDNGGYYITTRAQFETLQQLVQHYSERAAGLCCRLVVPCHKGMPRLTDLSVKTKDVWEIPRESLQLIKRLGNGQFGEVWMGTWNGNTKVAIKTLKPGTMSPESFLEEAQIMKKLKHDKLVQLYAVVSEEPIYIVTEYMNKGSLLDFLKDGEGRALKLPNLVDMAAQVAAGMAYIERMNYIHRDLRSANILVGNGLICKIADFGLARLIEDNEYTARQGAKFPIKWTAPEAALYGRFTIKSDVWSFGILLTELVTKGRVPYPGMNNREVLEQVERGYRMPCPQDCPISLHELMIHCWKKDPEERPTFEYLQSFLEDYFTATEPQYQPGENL

CN(C(=O)CN1CCOCC1)c1ccc2sc3c(-c4cccc5c(=O)cc(N6CC7CCC(C6)O7)oc45)cccc3c2c1 [NU5455]
inhibition at 1 µM: 3.3%
